Data taken from patent US20090036417A1, “COCHLEATES WITHOUT METAL CATIONS AS BRIDGING AGENTS” (priority 2002, published 2009).

Assays:
[1] = Loading capacity of cochleates for molecules as bridging agents (UV absorption / HPLC); format: physicochemical; conditions: with the lipid amount of column Lipids (mg): 5 mg for TAPS, 38.11 mg for Tobramycine
Protocol: Loading capacities of the new cochelates and nano-cochleates for TAS and tobramycin were determined. For TAS, known amounts of cochleates or nano-cochleates were first dissolved with chloroform, then added with water (pH=2), followed by strong shaking. The water phase was separated hereafter, and the same procedure was repeated two more times. The water phases collected three times were combined. The concentration of the extract was determined by UV absorption at 380 nm. […] The loading amount was determined based on the decreased concentration in the supernatant after cochleate formation. For mobile phase, 2.0 g of tris (hydroxymethyl) aminomethan was first dissolved with 800 ml of water, followed by addition of 20 ml of 1N H2SO4 and acetanitrile to a total volume of 2000 ml. For detectability, a solution of 2,4-dinitrofluourobene (10 mg/ml in alcohol) was prepared within 5 days prior to use and refrigerated. A water solution of tris (hydroxymethyl) aminomethane (15 mg/ml) was also prepared as a stock solution. Within 4 hours of analysis, this stock solution, 40 ml, was diluted with dimethyl sulfoxide (DMSO) to 200 ml. […] For the supernatant (the sample to be measured), 1 ml of 5.5 mg/ml of tobramycin solution was added into a liposome suspension with a lipid-to-drug ratio of 1:5. […]

E. Coli cell line, DH5α = test: Antibiotic activity of tobramycin in solution, cochleates and nano-cochleates (colony counting); format: cell-based; conditions: 0.5 μg/ml, 37° C., 24 hrs
Protocol: FIG. 9. Antibiotic activity of tobramycin formulated in solution, cochleates and nano-cochleates. The drug of various doses were added to E. Coli prior to incubation at 37° C., followed by counting of the colonies. Tobramycin was selected as a model drug to examine the capability of cochelates and nano-cochleates to deliver hydrophilic drugs across cell membranes because the antibiotic function of tobramycin relies on its binding to ribosomes inside of cells. In other words, tobramycin's antibiotic activity reflects internalization of the drug into the cells. For this purpose, tobramycin-loaded cochleates and nano-cochleates prepared as in Example 2 were incubated with E. Coli at various doses. As a control, a tobramycin solution was also incubated with E. Coli under identical conditions. Experimentally, one drop of E. Coli cell line, DH5α, was added to 2 ml LB Broth solution and incubated at 37° C. for 24 hrs to prepare 1:10 DH5α culture solution. Then, 5 ul of the DH5α culture solution was diluted to 2 ml and tobramycin was added in the form of cochleates and nano-cochleates at the final concentrations of 0, 0.5, 1.0, 2.5, and 5.0 μg/ml, respectively. The tobramycin-added cell cultures were incubated at 37° C., with shaking at 200 rpm, for 24 hrs. […]

## NC[C@H]1O[C@H](O[C@H]2[C@H](O)[C@@H](O[C@H]3O[C@H](CO)[C@@H](O)[C@H](N)[C@H]3O)[C@H](N)C[C@@H]2N)[C@H](N)C[C@@H]1O [Tobramycine, tobramycin]
[1]
  Drug (mg) loaded in cochleates: 5.5 mg
E. Coli cell line, DH5α
  antibiotic activity of drug solution relative to large cochleates: 75 times
  antibiotic activity of drug solution relative to nano-cochleates: slightly higher
